Measured values reported in patent US10624968B2, “Compounds for treating cancer” (Bicycle Therapeutics Limited, priority 2017, dated 2020).
Read-outs that look alike come from different tables or passages of the source.

Columns and labels:
SNU-16 [1] = conditions: historical, read-out: IC50* (Historical IC50 observed for paclitaxel); cited from earlier work
PC-3 [2] = conditions: historical, read-out: IC50* (Historical IC50 observed for paclitaxel); cited from earlier work
NCI-H1975 [3] = conditions: historical, read-out: IC50* (Historical IC50 observed for paclitaxel); cited from earlier work
MDA-MB-231 [4] = conditions: historical, read-out: IC50* (Historical IC50 observed for paclitaxel); cited from earlier work
MOLP-8 [5] = conditions: historical, read-out: IC50* (Historical IC50 observed for paclitaxel); cited from earlier work
HT29 [6] = experiment: cells; conditions: Homo sapiens, HT-29, 72 h
Text: (§1) Details of the initial cell plating procedure are described in Table 3.
(§2) Data Details for Tables 5 and 6. Inhibition %=(Max−Sample value)/(Max−Min)*100.
(§3) The IC50 curves were generated by 4 Parameter Logistic Model—Sigmoidal Dose-Response Model as follows: Y=Bottom+(Top−Bottom)/(1+10^((log EC50-X)*HillSlope)).

NCI-H1975 [7] = experiment: cells; conditions: Homo sapiens, NCI-H1975, 72 h
Text: as §1, §2, §3

SNU-16 [8] = experiment: cells; conditions: Homo sapiens, SNU-16, 72 h
Text: as §1, §2, §3

NCI-H292 [9] = experiment: cells; conditions: Homo sapiens, NCI-H292, 72 h
Text: as §1, §2, §3

HCT15 [10] = experiment: cells; conditions: Homo sapiens, HCT-15, 72 h
Text: as §1, §2, §3

HCC1806 [11] = experiment: cells; conditions: Homo sapiens, HCC1806, 72 h
Text: as §1, §2, §3

EBC-1 [12] = experiment: cells; conditions: Homo sapiens, EBC-1, 72 h
Text: as §1, §2, §3

MDA-MB-231 [13] = experiment: cells; conditions: Homo sapiens, MDA-MB-231, 72 h
Text: as §1, §2, §3

HT1080 [14] = experiment: cells; conditions: Homo sapiens, HT-1080, 72 h
Text: as §1, §2, §3

PC-3 [15] = experiment: cells; conditions: Homo sapiens, PC-3, 72 h
Text: as §1, §2, §3

MOLP-8 [16] = experiment: cells; conditions: Homo sapiens, MOLP-8, 72 h
Text: as §1, §2, §3

HCT15 [17] = conditions: historical, read-out: IC50* (Historical IC50 observed for paclitaxel); cited from earlier work
HCC1806 [18] = conditions: historical, read-out: IC50* (Historical IC50 observed for paclitaxel); cited from earlier work
NCI-H292 [19] = conditions: historical, read-out: IC50* (Historical IC50 observed for paclitaxel); cited from earlier work
EBC-1 [20] = conditions: historical, read-out: IC50* (Historical IC50 observed for paclitaxel); cited from earlier work
HT1080 [21] = conditions: historical, read-out: IC50* (Historical IC50 observed for paclitaxel); cited from earlier work
HT29 [22] = conditions: historical, read-out: IC50* (Historical IC50 observed for paclitaxel); cited from earlier work
11 tumor cell lines = experiment: 11 cancer cell line panel cytotoxicity, statements on the whole panel
Text: as §1, §2, §3

IC50 (HT29 [6]): 4.1 nM | IC50 (NCI-H1975 [7]): 7.2 nM | IC50 (SNU-16 [8]): 2.5 nM | IC50 (NCI-H292 [9]): 2.9 nM | IC50 (HCT15 [10]): 112 nM | IC50 (HCC1806 [11]): 2.7 nM | IC50 (EBC-1 [12]): 4.1 nM | IC50 (MDA-MB-231 [13]): 4.8 nM | IC50 (HT1080 [14]): 6.6 nM | IC50 (PC-3 [15]): 9.2 nM | IC50 (MOLP-8 [16]): 6.9 nM
SMILES: CC(=O)O[C@H]1C(=O)[C@@]2(C)[C@H]([C@H](OC(=O)c3ccccc3)[C@]3(O)C[C@H](OC(=O)[C@H](O)[C@@H](NC(=O)c4ccccc4)c4ccccc4)C(C)=C1C3(C)C)[C@]1(OC(C)=O)CO[C@@H]1C[C@@H]2O [Paclitaxel]
IC50 (SNU-16 [1]): 2 nM | IC50 (PC-3 [2]): 12 nM | IC50 (NCI-H1975 [3]): 5 nM | IC50 (MDA-MB-231 [4]): 9 nM | IC50 (MOLP-8 [5]): 4 nM | IC50 (HCT15 [17]): 128 nM | IC50 (HCC1806 [18]): 2 nM | IC50 (NCI-H292 [19]): 2 nM | IC50 (EBC-1 [20]): 4 nM | IC50 (HT1080 [21]): 1 nM | IC50 (HT29 [22]): 2 nM | cytotoxic activity over the cell line panel (in words) (11 tumor cell lines): worked well on all the tested cell lines
